The values below come from ChEMBL document CHEMBL1152897, “Synthesis and SAR study of novel pseudo-steroids as potent and selective progesterone receptor antagonists” (Bioorg Med Chem Lett, 2009).

The target of one experiment is T1, Progesterone receptor (Homo sapiens, UniProt P06401).
T1 sequence (P06401 whole entry): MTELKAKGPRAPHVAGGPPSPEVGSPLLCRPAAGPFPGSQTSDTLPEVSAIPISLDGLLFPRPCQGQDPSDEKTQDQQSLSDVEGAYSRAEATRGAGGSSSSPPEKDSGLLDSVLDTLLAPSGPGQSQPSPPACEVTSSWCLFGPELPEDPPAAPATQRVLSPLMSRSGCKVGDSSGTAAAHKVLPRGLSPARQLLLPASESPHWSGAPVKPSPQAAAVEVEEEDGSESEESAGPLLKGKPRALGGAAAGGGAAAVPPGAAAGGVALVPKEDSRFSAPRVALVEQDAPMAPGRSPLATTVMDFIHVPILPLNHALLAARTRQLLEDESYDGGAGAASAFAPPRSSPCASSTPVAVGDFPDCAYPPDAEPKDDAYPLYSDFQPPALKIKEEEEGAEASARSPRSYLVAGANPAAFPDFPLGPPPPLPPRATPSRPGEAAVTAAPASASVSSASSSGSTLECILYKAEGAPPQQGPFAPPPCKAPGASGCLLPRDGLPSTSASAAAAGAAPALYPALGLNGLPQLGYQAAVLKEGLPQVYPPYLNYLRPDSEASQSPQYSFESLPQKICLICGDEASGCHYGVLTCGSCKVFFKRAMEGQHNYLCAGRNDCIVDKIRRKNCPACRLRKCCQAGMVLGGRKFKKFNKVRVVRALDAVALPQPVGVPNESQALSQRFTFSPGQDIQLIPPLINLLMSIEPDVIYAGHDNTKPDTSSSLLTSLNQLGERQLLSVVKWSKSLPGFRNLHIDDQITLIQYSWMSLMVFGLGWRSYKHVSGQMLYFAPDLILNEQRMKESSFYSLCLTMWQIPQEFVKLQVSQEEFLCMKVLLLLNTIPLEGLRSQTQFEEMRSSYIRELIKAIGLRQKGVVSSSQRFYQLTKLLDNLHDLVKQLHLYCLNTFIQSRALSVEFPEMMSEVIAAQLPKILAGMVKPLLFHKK
Put plainly: Antagonist activity at progesterone receptor in human T47D cells assessed as inhibition of progesterone-induced alkaline phosphatase activity. It counts as functional, cell-based.

In a further experiment the target is T2, Glucocorticoid receptor (Homo sapiens, UniProt P04150).
T2 sequence (P04150 whole entry): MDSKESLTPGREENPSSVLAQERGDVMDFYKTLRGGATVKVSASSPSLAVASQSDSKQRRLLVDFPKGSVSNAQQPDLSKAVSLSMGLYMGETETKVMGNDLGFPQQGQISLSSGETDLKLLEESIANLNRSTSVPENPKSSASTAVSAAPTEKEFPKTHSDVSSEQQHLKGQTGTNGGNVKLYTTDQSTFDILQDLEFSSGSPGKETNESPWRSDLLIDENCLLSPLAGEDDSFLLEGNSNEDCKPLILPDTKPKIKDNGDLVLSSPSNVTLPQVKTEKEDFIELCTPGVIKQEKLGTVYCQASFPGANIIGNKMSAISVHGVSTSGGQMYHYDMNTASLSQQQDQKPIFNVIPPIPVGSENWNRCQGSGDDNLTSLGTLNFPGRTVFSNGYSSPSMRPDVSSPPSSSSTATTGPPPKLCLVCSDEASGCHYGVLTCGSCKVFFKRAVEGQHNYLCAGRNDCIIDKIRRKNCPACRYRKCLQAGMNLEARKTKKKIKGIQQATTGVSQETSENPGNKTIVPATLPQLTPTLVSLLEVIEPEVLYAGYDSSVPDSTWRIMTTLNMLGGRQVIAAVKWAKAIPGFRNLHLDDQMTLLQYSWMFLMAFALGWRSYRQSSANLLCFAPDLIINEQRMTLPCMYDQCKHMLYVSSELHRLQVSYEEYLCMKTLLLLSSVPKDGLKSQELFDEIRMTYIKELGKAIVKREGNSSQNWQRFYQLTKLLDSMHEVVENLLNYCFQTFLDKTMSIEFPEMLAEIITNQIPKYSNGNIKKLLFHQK
The experiment can be described thus: Antagonist activity at glucocorticoid receptor in human A549 cells assessed as inhibition of corticoid-induced transcription after 16 hrs by glucocorticoid response element-driven luciferase reporter gene assay. It counts as functional, cell-based. (In general: Reporter assays use an easily measured gene product as a stand-in for the process of interest.)

Another experiment relates to Rattus norvegicus. Put plainly: Blockade of progesterone-dependent inhibition of ethinyl estradiol-induced complement C3 expression in po dosed ovariectomized Sprague-Dawley rat uterus. The experiment is classed as functional, organism-based.

Each structure is given as a SMILES string. Bounds are passed on as bounds.

`C=C(C)[C@]1(O)CC[C@H]2[C@@H]3CCC4=CC(=O)CCC4=C3[C@@H](c3ccc(S(C)(=O)=O)cc3)OC[C@@]21C`: the IC50 was over 1000 nM at Progesterone receptor and over 3000 nM on Glucocorticoid receptor.
In the case of `C=C1CCO[C@]12CC[C@H]1[C@@H]3CCC4=CC(=O)CCC4=C3[C@@H](c3ccc(N(C)C)cc3)OC[C@@]12C`, the IC50 came to 1 nM at Progesterone receptor and 62 nM at Glucocorticoid receptor.
The like results for `CC#C[C@]1(O)CC[C@H]2[C@@H]3CCC4=CC(=O)CCC4=C3[C@@H](c3ccc(OC)cc3)OC[C@@]21C` were, in that order, over 1000 nM and 41 nM.
The like results for `C=C(C)[C@]1(O)CC[C@H]2[C@@H]3CCC4=CC(=O)CCC4=C3[C@@H](c3ccc(SC)cc3)OC[C@@]21C` were, in that order, 3.3 nM and 58 nM.
`COc1ccc([C@H]2OC[C@@]3(C)[C@@H](CC[C@@]3(O)C#Cc3ccccc3)[C@@H]3CCC4=CC(=O)CCC4=C32)cc1`: the IC50 on Progesterone receptor came to 280 nM; at Glucocorticoid receptor, 21 nM.
Taken in the same sequence, the figures for `COc1ccc([C@H]2OC[C@@]3(C)[C@@H](CC[C@@]3(O)C#Cc3ccc(C(F)(F)F)cc3)[C@@H]3CCC4=CC(=O)CCC4=C32)cc1` were 82 nM and 26 nM.
Turning to `CC#C[C@]1(O)CC[C@H]2[C@@H]3CCC4=CC(=O)CCC4=C3[C@@H](c3ccc(N(C)C)cc3)C[C@@]21C` [MIFEPRISTONE], the IC50 with Rattus norvegicus was determined as 4.6 mg/kg.
As to `C#C[C@]1(O)CC[C@H]2[C@@H]3CCC4=CC(=O)CCC4=C3[C@@H](c3ccc(OC)cc3)OC[C@@]21C`, the IC50 at Progesterone receptor is over 1000 nM; on Glucocorticoid receptor, 110 nM.
Taken in the same sequence, the figures for `CN(C)c1ccc([C@H]2OC[C@]3(C)[C@@H](O)CC[C@H]3[C@@H]3CCC4=CC(=O)CCC4=C32)cc1` were 930 nM and 1400 nM.
With `C=C1CCO[C@]12CC[C@H]1[C@@H]3CCC4=CC(=O)CCC4=C3[C@@H](c3ccc(OC)cc3)OC[C@@]12C`, the IC50 at Progesterone receptor came out at 7 nM; on Glucocorticoid receptor, 132 nM.
Taken in the same sequence, the figures for `CSc1ccc([C@H]2OC[C@@]3(C)[C@@H](CC[C@@]3(O)C(F)(F)C(F)(F)F)[C@@H]3CCC4=CC(=O)CCC4=C32)cc1` were 56 nM and 7 nM.
Consider `CC#C[C@]1(O)CC[C@H]2[C@@H]3CCC4=CC(=O)CCC4=C3[C@@H](c3ccc(N(C)C)cc3)OC[C@@]21C`, for which the IC50 at Progesterone receptor worked out at 34 nM; with Rattus norvegicus it was 16 mg/kg; on Glucocorticoid receptor, 17 nM.
As for `CN(C)c1ccc([C@H]2OC[C@@]3(C)[C@@H](CC[C@@]3(O)C#Cc3ccccc3)[C@@H]3CCC4=CC(=O)CCC4=C32)cc1`, the IC50 worked out at 60 nM on Progesterone receptor and 102 nM on Glucocorticoid receptor.
Taken in the same sequence, the figures for `C#C[C@]1(O)CC[C@H]2[C@@H]3CCC4=CC(=O)CCC4=C3[C@@H](c3ccc(N(C)C)cc3)OC[C@@]21C` were 33 nM and 68 nM.
The like results for `C=C(C)[C@]1(O)CC[C@H]2[C@@H]3CCC4=CC(=O)CCC4=C3[C@@H](c3ccc(N(C)C)cc3)OC[C@@]21C` were, in that order, 0.3 nM and 150 nM.
The like results for `CN(C)c1ccc([C@H]2OC[C@@]3(C)[C@@H](CC[C@@]3(O)C(F)(F)C(F)(F)F)[C@@H]3CCC4=CC(=O)CCC4=C32)cc1` were, in that order, 36 nM and 20 nM.
